# Test results as given in patent publication EP2508526A1, “Spiroalkene carboxamide derivatives and their use as chemokine receptor modulators” (Ares Trading SA, priority 2011, dated 2012).
# pKi: −log10 of the molar value.
# Experiments:
# hCCR2b [1] = target: T1, hCCR2b (Homo sapiens, UniProt P41597); experiment: CCR2 binding assay ([125I]MCP-1, SPA, CHO cell membranes); design: expressed in transfected cells; host or cells: CHO cells (membrane preparation); conditions: membranes from CHO cells expressing hCCR2b, 50 pM [125I]MCP-1; read-out: Binding hCCR2 (Ki)
# T1 sequence (P41597 1-360 isoform P41597-2): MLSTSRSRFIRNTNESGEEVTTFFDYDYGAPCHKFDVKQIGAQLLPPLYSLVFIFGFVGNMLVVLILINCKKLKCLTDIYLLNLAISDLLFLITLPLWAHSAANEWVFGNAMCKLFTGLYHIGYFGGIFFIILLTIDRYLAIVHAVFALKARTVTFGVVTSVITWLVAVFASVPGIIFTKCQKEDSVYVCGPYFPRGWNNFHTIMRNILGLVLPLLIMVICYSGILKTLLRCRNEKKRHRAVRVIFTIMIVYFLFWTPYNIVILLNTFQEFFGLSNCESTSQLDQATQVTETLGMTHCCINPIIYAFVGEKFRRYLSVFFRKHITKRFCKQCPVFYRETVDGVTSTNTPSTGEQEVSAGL
# In short: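 CHO membranes expressing hCCR2b (1–5 µg/well) with 50 pM [125I]MCP-1 and WGA SPA beads in 50 mM HEPES pH 7.4, 5 mM MgCl2, 1 mM CaCl2, 0.1% BSA, 1% DMSO; 90 min RT with agitation. Bound counts on scintillation counter; nonspecific defined by 1000-fold excess unlabeled compound.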
# hCCR2b [2] = target: T1, hCCR2b; experiment: Chemotaxis of L1.2-hCCR2b cells towards MCP-1 P8A; type: cell-based; design: expressed in transfected cells; host or cells: L1.2 cells (murine pre-B cell line); conditions: MCP-1 P8A at EC80, 4-hours incubation
# Excerpt: L1.2 cells, a murine pre-LB cellline, were transfected with the human CCR2b receptor for use in the transmigration of L1.2 hCCR2b on the chemotaxis system: ChemotX® provided by Neuroprobes (8µm pore size). Monocyte Chemoattractant Protein-1 (MCP-1) stimulation leads to activate the CCR2 receptor and inititates a cascade of events including chemotaxis. MCP-1 ligand will be replaced by MCP-1 P8A protein with genetic modifications to prevent the oligomerization of the protein. L1.2-hCCR2b are incubated in white RPMI 1640, 5% v/v Heat inactivated FCS, 1% v/v penicillin-streptomycin supplemented with 5 mM Butyrate overnight to enhance receptor expression level at the cell surface. L1.2-hCCR2b cells and compounds in DMSO (1% final) are preincubated 15 min in chemotaxis medium and placed in the Upper Chamber of the chemotaxis system. The MCP-1 P8A initially present at its EC80 (concentration of MCP-1 P8A which allows 80% of cell migration) in the Lower Chamber (with compounds to avoid any compound gradient) diffuses through the pores of the membrane and interacts with the CCR2 receptor of cells present in the upper chamber. The tested compounds can also potentially interact with CCR2 receptor and therefore inhibit the migration of the cells from the Upper Chamber to the Lower Chamber. After a 4-hours incubation time at 37°C, 5% CO2, a quantification of the cells which have migrated is performed using the Cyquant (Invitrogen) and a fluorescent reader as a Fluostar (exc: 485nm; emm: 520 nm). Specific migration is assessed by substracting the basal migration of cells without any stimulation. Chemotaxis data were analyzed using the Genedata Screener® software.
smiles,measurement,setting,value
"CCN1CCC2(CC1)OC(=O)C(C)=C2C(=O)N1CCN(c2cccc(C(F)(F)F)c2)CC1 [Compound 74, 8-ethyl-3-methyl-4-({4-[3-(trifluoromethyl)phenyl]piperazin-1-yl}carbonyl)-1-oxa-8-azaspiro[4.5]dec-3-en-2-one]",pKi,hCCR2b [1],> 7.30
same,pKi,hCCR2b [2],> 7.30
